Laboratory results published in patent EP0466251A1, “Elfamycin-resistant mutants” (priority 1990, dated 1992).

Assays:
[1] = biological target: T1, parent SrEF-Tu from S. ramocissimus CBS 190.69 (Streptomyces ramocissimus, UniProt P29542); assay: in vitro poly(U) directed poly(phe) synthesis; type: biochemical
T1 construct: made in house; host or cells: E. coli PM1455
Procedure: (§1) The sensitivity of SrEF-Tu mutants A378V and A378T to elfamycin was tested by in vitro studies. Both parent and mutant S. ramocissimus EF-Tu, after transformation of the respective cloned genes, were expressed in an E. coli strain encoding an elfamycin resistant EF-Tu. Cell-free extracts of these transformants were subsequently tested for elfamycin sensitivity of the translation apparatus, using a variation on the procedure described by C. Glöckner and H. Wolf (cited above). […] The parent SrEF-Tu reached 50% residual activity already at 1.6 mg/l. […]
(§2) Plasmids pUSrT1-1, pUSrT1V-1 and pUSrT1T-1 were transformed to E. coli PM1455 (tufA, tufB::Mu, rpoB, recA56; P. van der Meide et al., Eur. J. Biochem. 130 (1983) 409-417); this strain has only one active tuf gene, which encodes an elfamycin resistant EF-Tu. […] The first 4 fractions having absorbance at 260 nm were pooled. […]
(§3) At 0°C an incubation mixture was prepared consisting of 40 mM Tris-acetate pH 7.6, 10 mM Mg-acetate, 60 mM NH₄Cl, 5 mM β-mercaptoethanol, 1 mM ATP, 0.025 mM GTP, 2.5 mM phosphoenolpyruvate, 0.25 µg/ml pyruvate kinase, 0.8 mg/ml tRNA, 0.1 mg/ml poly(U), 95 µM phenylalanine, and 3 µCi/ml ³H-phenylalanine (57 Ci/mmol). […] Incorporation of ³H-phenylalanine was analyzed in a liquid scintillation counter. […]

[2] = system: S. ramocissimus CBS 190.69; assay: germination and growth of spores in liquid YMG medium; type: cell-based; conditions: 5.10⁷ spores/ml, 25 ml YMG medium, shake flasks, 5 days at 30°C
Procedure: (§4) Spores, mycelium, and protoplasts of strain S. ramocissimus R1V were examined with respect to the minimal inhibitory concentration of mocimycin on their growth properties.
(§5) Spores of strain S. ramocissimus R1V and the control S. ramocissimus CBS 190.69 were inoculated at 5.10⁷ spores/ml in parallel shake flasks containing 25 ml YMG medium and mocimycin at concentrations ranging from 0 to 1 g/l. Incubation was for 5 days at 30°C. For the control strain 0.15 g/l mocimycin inhibited germination (and/or growth) of the spores, whereas spores of S. ramocissimus strain R1V still germinated and grew at mocimycin concentrations up to 0.75 g/l.

S. ramocissimus R1V [3] = assay: as above; type: cell-based; conditions: 5.10⁷ spores/ml, 25 ml YMG medium, shake flasks, 5 days at 30°C
Procedure: as §4, §5

[4] = system: S. ramocissimus CBS 190.69; assay: germination and growth of spores on solid medium (HI-agar); type: cell-based; parameters: key to Germination and growth of spores: +++ = good growth; ++ = slow growth; + = very slow growth; - = no growth
Procedure: (§6) Similar results were obtained on solid medium (HI-agar, Difco) containing 0 to 1 g/l mocimycin; spores from S. ramocissimus R1V and S. ramocissimus CBS 190.69 were diluted such that approximately 200 colony forming units were applied to each agar plate. Incubation of the plates was at 30°C for 5 days. For the control strain S. ramocissimus CBS 190.69 no colonies appeared above 0.1 g/l mocimycin; on the contrary, spores of S. ramocissimus strain R1V quantitatively were able to germinate and form colonies at least up to 0.75 g/l.

S. ramocissimus R1V [5] = assay: as above; type: cell-based; parameters: key to Germination and growth of spores: +++ = good growth; ++ = slow growth; + = very slow growth; - = no growth
Procedure: as §6

SrEF-Tu mutant A378V = biological target: T2, SrEF-Tu mutant A378V (Streptomyces ramocissimus, UniProt P29542, A379V); assay: in vitro poly(U) directed poly(phe) synthesis; type: biochemical, S. ramocissimus
T2 construct: made in house; host or cells: E. coli PM1455
T2 sequence (P29542 whole entry A379V): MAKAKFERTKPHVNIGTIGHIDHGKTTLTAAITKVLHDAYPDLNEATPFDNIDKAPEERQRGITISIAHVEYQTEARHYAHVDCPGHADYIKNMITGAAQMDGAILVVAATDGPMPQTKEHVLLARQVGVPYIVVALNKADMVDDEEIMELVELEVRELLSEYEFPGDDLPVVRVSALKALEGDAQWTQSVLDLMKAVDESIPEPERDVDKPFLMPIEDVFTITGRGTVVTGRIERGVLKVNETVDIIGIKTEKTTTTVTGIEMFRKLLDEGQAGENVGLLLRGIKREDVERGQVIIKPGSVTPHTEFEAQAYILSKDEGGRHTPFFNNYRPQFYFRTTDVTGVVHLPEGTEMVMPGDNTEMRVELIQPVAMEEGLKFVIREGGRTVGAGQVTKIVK
Procedure: as §1, §2, §3

SrEF-Tu mutant A378T = biological target: T3, SrEF-Tu mutant A378T (Streptomyces ramocissimus, UniProt P29542, A379T); assay: in vitro poly(U) directed poly(phe) synthesis; type: biochemical, S. ramocissimus
T3 construct: made in house; host or cells: E. coli PM1455
T3 sequence (P29542 whole entry A379T): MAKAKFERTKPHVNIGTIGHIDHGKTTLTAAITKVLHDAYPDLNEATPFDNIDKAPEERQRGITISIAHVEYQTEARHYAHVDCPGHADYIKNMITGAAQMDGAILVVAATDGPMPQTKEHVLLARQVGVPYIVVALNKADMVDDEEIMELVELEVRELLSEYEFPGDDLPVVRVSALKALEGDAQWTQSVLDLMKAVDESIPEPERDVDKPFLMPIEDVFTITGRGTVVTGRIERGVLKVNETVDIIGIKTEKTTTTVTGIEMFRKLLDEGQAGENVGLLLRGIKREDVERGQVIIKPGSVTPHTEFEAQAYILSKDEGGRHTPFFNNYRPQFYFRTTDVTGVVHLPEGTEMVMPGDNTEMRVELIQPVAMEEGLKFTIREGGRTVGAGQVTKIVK
Procedure: as §1, §2, §3

[6] = 16 mg/l mocimycin, period of 40 minutes
[7] = S-30 extract of E. coli PM1455 transformant, reaction time 10 minutes
[8] = approximately 200 colony forming units per plate, 30°C for 5 days

T1 sequence (P29542 whole entry): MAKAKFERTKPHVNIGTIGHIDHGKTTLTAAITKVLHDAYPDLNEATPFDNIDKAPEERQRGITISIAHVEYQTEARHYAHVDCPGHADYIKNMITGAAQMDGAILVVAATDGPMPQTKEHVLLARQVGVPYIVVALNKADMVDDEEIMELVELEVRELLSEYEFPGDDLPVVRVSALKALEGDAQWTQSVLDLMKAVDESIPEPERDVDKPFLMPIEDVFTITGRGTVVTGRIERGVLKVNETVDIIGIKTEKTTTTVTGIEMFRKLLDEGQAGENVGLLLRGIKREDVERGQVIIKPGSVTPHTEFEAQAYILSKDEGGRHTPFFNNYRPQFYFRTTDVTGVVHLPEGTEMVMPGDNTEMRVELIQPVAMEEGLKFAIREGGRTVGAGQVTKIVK

## C/C=C\C=C\[C@@H]1O[C@](O)([C@H](CC)C(=O)NC/C=C/C=C(\C)[C@@H](OC)[C@H](C)[C@@H]2O[C@H](/C=C/C=C/C=C(\C)C(=O)c3c(O)cc[nH]c3=O)[C@H](O)[C@@H]2O)[C@H](O)[C@H](O)C1(C)C [mocimycin, Mocimycin]
[1]; [6]
  efficiency of ³H-phenylalanine incorporation compared to the mocimycin free reaction: ≤ 20%
[1]; [7]
  mocimycin concentration at a residual activity of 50% in the in vitro poly(phe) synthesis: 1.6 mg/L
[2]
  mocimycin concentration that inhibited germination (and/or growth) of the spores: 0.15 g/L
S. ramocissimus R1V [3]
  mocimycin concentrations at which spores still germinated and grew: up to 0.75 g/l
[4]; [8]
  mocimycin concentration above which no colonies appeared: above 0.1 g/l
[4]; mocimycin 0.10 g/l
  Germination and growth of spores: +
[4]; mocimycin 0.20 g/l
  Germination and growth of spores: -
[4]; mocimycin 0.40 g/l
  Germination and growth of spores: -
[4]; mocimycin 0.60 g/l
  Germination and growth of spores: -
[4]; mocimycin 0.75 g/l
  Germination and growth of spores: -
[4]; mocimycin 1.0 g/l
  Germination and growth of spores: -
S. ramocissimus R1V [5]; [8]
  mocimycin concentration up to which spores were able to germinate and form colonies: ≥ 0.75 g/L
S. ramocissimus R1V [5]; mocimycin 0.10 g/l
  Germination and growth of spores: +++
S. ramocissimus R1V [5]; mocimycin 0.20 g/l
  Germination and growth of spores: +++
S. ramocissimus R1V [5]; mocimycin 0.40 g/l
  Germination and growth of spores: ++
S. ramocissimus R1V [5]; mocimycin 0.60 g/l
  Germination and growth of spores: ++
S. ramocissimus R1V [5]; mocimycin 0.75 g/l
  Germination and growth of spores: +
S. ramocissimus R1V [5]; mocimycin 1.0 g/l
  Germination and growth of spores: -
SrEF-Tu mutant A378V; [6]
  efficiency of ³H-phenylalanine incorporation compared to the parallel incubation without mocimycin: 80%
SrEF-Tu mutant A378V; [7]
  mocimycin concentration at a residual activity of 50% in the in vitro poly(phe) synthesis: 160 mg/L
SrEF-Tu mutant A378T; [6]
  efficiency of ³H-phenylalanine incorporation compared to the parallel incubation without mocimycin: 80%
SrEF-Tu mutant A378T; [7]
  mocimycin concentration at a residual activity of 50% in the in vitro poly(phe) synthesis: 160 mg/L
